{"source": "patent US20250296960A1", "about": "“PEPTIDE COMPOSITIONS AND METHODS OF USE THEREOF” (priority 2022, published 2025)", "key": {"[1]": {"assay": "In vivo efficacy in mAMLN (NASH) mice, 2 weeks", "conditions": "for blood glucose, in words / body weight, in words: 20 nmol/kg s.c. Q2D, 2 weeks; for hepatic triglyceride content, in words / liver weight, in words / mRNA levels of TGF-β1 (inflammation marker) and ACTA2 (fibrosis marker), in words: end of treatment"}, "[2]": {"assay": "Body weight loss in normal C57BL/6 mice, subcutaneous dosing", "format": "in vivo", "conditions": "normal mice; 20 nmol/kg QD; Weight loss at 48 hr"}, "[3]": {"assay": "Intestinal absorption / PK after intraduodenal administration of oral formulation in rats, serum LC-MS/MS", "conditions": "rat, in vivo, 300 nmol/kg", "procedure": "This study was conducted to evaluate the intestinal absorption of peptides following enteral administration of oral pharmaceutical formulations. The pharmaceutical formulation was administered in a form of suspensions by intraduodenal (ID) injection in rats. SEQ ID_87, 89 and 90 was accurately weighed and dissolved in 10 mM PBS containing polysorbate 80 (pH 7.4, vehicle I). The mixture was vortexed for 5 min to get a clear solution. Then, 2.5 mL of vehicle was added to the mixture and vortexed for 30 min to get homogenous opaque suspension. The composition of Vehicle II was sodium chenodeoxycholate, and propyl gallate in polysorbate 80 in PBS. The animals were not fasted prior to dosing. 0.2˜ 0.4 mL of whole blood was taken from vein at each time point (0, 0.167, 0.5, 1, 2, 4, 8, 24, and 48 hrs after IV or ID administration). The collected whole blood was incubated at room temperature for 20 min and tubes were centrifugated at 13,000 rpm for 10 min at 4° C. The resulting serum 0.1˜ 0.2 mL was transferred into the tube and stored at −70° C. until analysis. The concentrations of peptides in serum were determined by LC-MS/MS analysis. PK parameters were analyzed by non-compartmental analysis using Phoenix WinNonlin 5.0.1. software (Pharsight Corporation, Mountain View, CA, USA)."}}, "note": "Where two headings read alike, the source gives them in different places. Numbered stars: 1 amine (or outer) side, 2 acyl side, 3 side chain; on linkers, the order of the positions; unused ones are H or OH. Square brackets hold non-standard residues; d marks the D form. Side chains are listed from the residue outwards. Ends that are not written are not given here. Peptide text beside a SMILES is read from it. * marks the point of attachment. C18 = C18 fatty acid (C16-C22 fatty acids conjugated via γGlu/8-amino-3,6-dioxaoctanoic acid spacers); Biotin = O=C1N[C@H]2[C@H](CS[C@H]2CCCCC(=O)*)N1; C18 diacid = O=C(O)CCCCCCCCCCCCCCCCC(=O)*; γGlu = O=C(O)[C@H](CCC(=O)[*:2])N[*:1]; AEEA = NCCOCCOCC(=O)O; Aib = CC(C)(N)C(=O)O", "data": [{"compound": "HAibQGT FTSDY SK*YLD YMMARDFVQWLIEGGPSSGAPPPS (H[Aib]QGTFTSDYSK([AEEA-AEEA-γGlu-C18])YLDYMMARDFVQWLIEGGPSSGAPPPS-NH2) [5D, K* = lysine lipidated with 2OEG-γGlu-C18]", "values": [{"measurement": "blood glucose, in words", "setting": "[1]", "value": "reduce blood glucose"}, {"measurement": "body weight, in words", "setting": "[1]", "value": "reduce body weight"}, {"measurement": "hepatic triglyceride content, in words", "setting": "[1]", "value": "reduce hepatic triglyceride content"}, {"measurement": "liver weight, in words", "setting": "[1]", "value": "reduce liver weight"}, {"measurement": "mRNA levels of TGF-β1 (inflammation marker) and ACTA2 (fibrosis marker), in words", "setting": "[1]", "value": "reduce both TGF-β1 and ACTA2"}, {"measurement": "Weight loss (%)", "setting": "[2]", "value": "19.4 ± 2.2", "unit": "%"}]}, {"compound": "YAibQGT FTSDY SK*YLD YMMARDFVQWLIEGGPSSGAPPPS (Y[Aib]QGTFTSDYSK([AEEA-AEEA-γGlu-C18])YLDYMMARDFVQWLIEGGPSSGAPPPS-NH2) [5-1D, K* = lysine lipidated with 2OEG-γGlu-C18]", "values": [{"measurement": "blood glucose, in words", "setting": "[1]", "value": "reduce blood glucose"}, {"measurement": "body weight, in words", "setting": "[1]", "value": "reduce body weight"}, {"measurement": "hepatic triglyceride content, in words", "setting": "[1]", "value": "reduce hepatic triglyceride content"}, {"measurement": "liver weight, in words", "setting": "[1]", "value": "reduce liver weight"}, {"measurement": "mRNA levels of TGF-β1 (inflammation marker) and ACTA2 (fibrosis marker), in words", "setting": "[1]", "value": "reduce both TGF-β1 and ACTA2"}, {"measurement": "Weight loss (%)", "setting": "[2]", "value": "16.7 ± 1.3", "unit": "%"}]}, {"compound": "YAibQGT FTSDY SK*LLD YMMQRDFVQWLLEGGPSSGAPPPS (Y[Aib]QGTFTSDYSK([AEEA-AEEA-γGlu-C18])LLDYMMQRDFVQWLLEGGPSSGAPPPS-NH2) [5-3D, K* = lysine lipidated with 2OEG-γGlu-C18]", "values": [{"measurement": "blood glucose, in words", "setting": "[1]", "value": "reduce blood glucose"}, {"measurement": "body weight, in words", "setting": "[1]", "value": "reduce body weight"}, {"measurement": "hepatic triglyceride content, in words", "setting": "[1]", "value": "reduce hepatic triglyceride content"}, {"measurement": "liver weight, in words", "setting": "[1]", "value": "reduce liver weight"}, {"measurement": "mRNA levels of TGF-β1 (inflammation marker) and ACTA2 (fibrosis marker), in words", "setting": "[1]", "value": "reduce both TGF-β1 and ACTA2"}, {"measurement": "Weight loss (%)", "setting": "[2]", "value": "7.6 ± 1.3", "unit": "%"}]}, {"compound": "YAibQGT FTSDY SK*YLD YMMQRDFVQWLIEGGPSSGAPPPS (Y[Aib]QGTFTSDYSK([AEEA-AEEA-γGlu-C18])YLDYMMQRDFVQWLIEGGPSSGAPPPS-NH2) [5-2D, K* = lysine lipidated with 2OEG-γGlu-C18]", "values": [{"measurement": "blood glucose, in words", "setting": "[1]", "value": "reduce blood glucose"}, {"measurement": "body weight, in words", "setting": "[1]", "value": "reduce body weight"}, {"measurement": "hepatic triglyceride content, in words", "setting": "[1]", "value": "reduce hepatic triglyceride content"}, {"measurement": "liver weight, in words", "setting": "[1]", "value": "reduce liver weight"}, {"measurement": "mRNA levels of TGF-β1 (inflammation marker) and ACTA2 (fibrosis marker), in words", "setting": "[1]", "value": "reduce both TGF-β1 and ACTA2"}, {"measurement": "Weight loss (%)", "setting": "[2]", "value": "16.6 ± 0.9", "unit": "%"}]}, {"compound": "CSCC[C@H](NC(=O)[C@H](Cc1ccc(O)cc1)NC(=O)[C@H](CC(=O)O)NC(=O)[C@H](CC(C)C)NC(=O)[C@H](CC(C)C)NC(=O)[C@H](CCCCNC(=O)COCCOCCNC(=O)COCCOCCNC(=O)CC[C@H](NC(=O)CCCCCCCCCCCCCCCCC(=O)O)C(=O)O)NC(=O)[C@H](CO)NC(=O)[C@H](Cc1ccc(O)cc1)NC(=O)[C@H](CC(=O)O)NC(=O)[C@H](CO)NC(=O)[C@@H](NC(=O)[C@H](Cc1ccccc1)NC(=O)[C@@H](NC(=O)CNC(=O)[C@H](CCC(N)=O)NC(=O)C(C)(C)NC(=O)[C@@H](N)Cc1ccc(O)cc1)[C@@H](C)O)[C@@H](C)O)C(=O)N[C@@H](CCSC)C(=O)N[C@@H](CCC(N)=O)C(=O)N[C@@H](CCCNC(=N)N)C(=O)N[C@@H](CC(=O)O)C(=O)N[C@@H](Cc1ccccc1)C(=O)N[C@H](C(=O)N[C@@H](CCCCNC(=O)CCCC[C@@H]1SC[C@@H]2NC(=O)N[C@@H]21)C(=O)N[C@@H](Cc1c[nH]c2ccccc12)C(=O)N[C@@H](CC(C)C)C(=O)N[C@@H](CC(C)C)C(=O)N[C@@H](CCC(=O)O)C(=O)NCC(=O)NCC(=O)N1CCC[C@H]1C(=O)N[C@@H](CO)C(=O)N[C@@H](CO)C(=O)NCC(=O)N[C@@H](C)C(=O)N1CCC[C@H]1C(=O)N1CCC[C@H]1C(=O)N1CCC[C@H]1C(=O)N[C@@H](CO)C(N)=O)C(C)C", "note": "[SEQ ID_89] (H-Y[Aib]QGTFTSDYSK([AEEA-AEEA-γGlu-C18 diacid])LLDYMMQRDFVK(Biotin)WLLEGGPSSGAPPPS-NH2; N-terminus and C-terminus assumed)", "values": [{"measurement": "AUC(0-inf)", "setting": "[3]; rats, single intraduodenal administration, oral formulation suspension, serum, mean ± SD, read-out: AUCinf", "value": 2790, "unit": "ng·h/mL"}, {"measurement": "Cmax", "setting": "[3]; rats, single intraduodenal administration, oral formulation suspension, serum, mean ± SD, read-out: Cmax", "value": "332 ± 124", "unit": "ng/mL"}, {"measurement": "MRT inf", "setting": "[3]; rats, single intraduodenal administration, oral formulation suspension, serum, mean ± SD, read-out: MRTinf", "value": "9.89 ± 3.91", "unit": "h"}, {"measurement": "Tmax", "setting": "[3]; rats, single intraduodenal administration, oral formulation suspension, serum, mean ± SD, read-out: Tmax", "value": "0.43 ± 0.15", "unit": "h"}, {"measurement": "half-life", "setting": "[3]; rats, single intraduodenal administration, oral formulation suspension, serum, mean ± SD, read-out: t1/2 (converted)", "value": "7.24 ± 2.05", "unit": "h"}]}, {"compound": "CSCC[C@H](NC(=O)[C@H](Cc1ccc(O)cc1)NC(=O)[C@H](CC(=O)O)NC(=O)[C@H](CC(C)C)NC(=O)[C@H](CC(C)C)NC(=O)[C@H](CCCCNC(=O)COCCOCCNC(=O)COCCOCCNC(=O)CC[C@H](NC(=O)CCCCCCCCCCCCCCCCC(=O)O)C(=O)O)NC(=O)[C@H](CO)NC(=O)[C@H](Cc1ccc(O)cc1)NC(=O)[C@H](CC(=O)O)NC(=O)[C@H](CO)NC(=O)[C@@H](NC(=O)[C@H](Cc1ccccc1)NC(=O)[C@@H](NC(=O)CNC(=O)[C@H](CCC(N)=O)NC(=O)C(C)(C)NC(=O)[C@@H](N)Cc1ccc(O)cc1)[C@@H](C)O)[C@@H](C)O)C(=O)N[C@@H](CCSC)C(=O)N[C@@H](CCC(N)=O)C(=O)N[C@@H](CCCNC(=N)N)C(=O)N[C@@H](CC(=O)O)C(=O)N[C@@H](Cc1ccccc1)C(=O)N[C@H](C(=O)N[C@@H](CCC(N)=O)C(=O)N[C@@H](Cc1c[nH]c2ccccc12)C(=O)N[C@@H](CC(C)C)C(=O)N[C@@H](CC(C)C)C(=O)N[C@@H](CCC(=O)O)C(=O)NCC(=O)NCC(=O)N1CCC[C@H]1C(=O)N[C@@H](CO)C(=O)N[C@@H](CO)C(=O)NCC(=O)N[C@@H](C)C(=O)N1CCC[C@H]1C(=O)N1CCC[C@H]1C(=O)N1CCC[C@H]1C(=O)N[C@@H](CO)C(=O)N[C@@H](CCCCNC(=O)CCCC[C@@H]1SC[C@@H]2NC(=O)N[C@@H]21)C(N)=O)C(C)C", "note": "[SEQ ID_90] (H-Y[Aib]QGTFTSDYSK([AEEA-AEEA-γGlu-C18 diacid])LLDYMMQRDFVQWLLEGGPSSGAPPPSK(Biotin)-NH2; N-terminus and C-terminus assumed)", "values": [{"measurement": "AUC(0-inf)", "setting": "[3]", "value": 2490, "unit": "ng·h/mL"}, {"measurement": "Cmax", "setting": "[3]", "value": "282 ± 88.5", "unit": "ng/mL"}, {"measurement": "MRT inf", "setting": "[3]", "value": "11.8 ± 1.48", "unit": "h"}, {"measurement": "Tmax", "setting": "[3]", "value": "0.3 ± 0.18", "unit": "h"}, {"measurement": "half-life", "setting": "[3]", "value": "8.37 ± 0.92", "unit": "h"}]}, {"compound": "CSCC[C@H](NC(=O)[C@H](CCCCNC(=O)CCCC[C@@H]1SC[C@@H]2NC(=O)N[C@@H]21)NC(=O)[C@H](Cc1ccc(O)cc1)NC(=O)[C@H](CC(=O)O)NC(=O)[C@H](CC(C)C)NC(=O)[C@H](CC(C)C)NC(=O)[C@H](CCCCNC(=O)COCCOCCNC(=O)COCCOCCNC(=O)CC[C@H](NC(=O)CCCCCCCCCCCCCCCCC(=O)O)C(=O)O)NC(=O)[C@H](CO)NC(=O)[C@H](Cc1ccc(O)cc1)NC(=O)[C@H](CC(=O)O)NC(=O)[C@H](CO)NC(=O)[C@@H](NC(=O)[C@H](Cc1ccccc1)NC(=O)[C@@H](NC(=O)CNC(=O)[C@H](CCC(N)=O)NC(=O)C(C)(C)NC(=O)[C@@H](N)Cc1ccc(O)cc1)[C@@H](C)O)[C@@H](C)O)C(=O)N[C@@H](CCC(N)=O)C(=O)N[C@@H](CCCNC(=N)N)C(=O)N[C@@H](CC(=O)O)C(=O)N[C@@H](Cc1ccccc1)C(=O)N[C@H](C(=O)N[C@@H](CCC(N)=O)C(=O)N[C@@H](Cc1c[nH]c2ccccc12)C(=O)N[C@@H](CC(C)C)C(=O)N[C@@H](CC(C)C)C(=O)N[C@@H](CCC(=O)O)C(=O)NCC(=O)NCC(=O)N1CCC[C@H]1C(=O)N[C@@H](CO)C(=O)N[C@@H](CO)C(=O)NCC(=O)N[C@@H](C)C(=O)N1CCC[C@H]1C(=O)N1CCC[C@H]1C(=O)N1CCC[C@H]1C(=O)N[C@@H](CO)C(N)=O)C(C)C", "note": "[SEQ ID NO. 87, YAibQGT FTSDY SK*LLD YB*MQR DFVQW LLEGG PSSGA PPPS] (H-Y[Aib]QGTFTSDYSK([AEEA-AEEA-γGlu-C18 diacid])LLDYK(Biotin)MQRDFVQWLLEGGPSSGAPPPS-NH2; N-terminus and C-terminus assumed)", "values": [{"measurement": "AUC(0-inf)", "setting": "[3]", "value": 1860, "unit": "ng·h/mL"}, {"measurement": "Cmax", "setting": "[3]", "value": "290 ± 110", "unit": "ng/mL"}, {"measurement": "MRT inf", "setting": "[3]", "value": "8.19 ± 1.92", "unit": "h"}, {"measurement": "Tmax", "setting": "[3]", "value": "0.25 ± 0.17", "unit": "h"}, {"measurement": "half-life", "setting": "[3]", "value": "6.17 ± 1.36", "unit": "h"}]}]}
